The source of these data is patent US20100120879A1, “INSECTICIDES AS SAFENER FOR FUNGICIDES WITH PHYTOTOXIC ACTION” (priority 2007, published 2010).

The test system of series [1] is wheat. Particulars: wheat treated with the azole fungicide; F. Montfort et al., Pesticide Science 46(4), 1996; cited from earlier work.
The test system of series [2] is soybeans, variety "Conquista". Briefly: Vitality of the plants 14 days after sowing (visual score). Conditions: visual scale 0 to 10, untreated = 5, each point = 20% improvement or deterioration, triticonazole 50 g, fipronil 50 g, gibberellic acid 1 g a.s. per 100 kg seeds.
Series [3] concerns Phakopsora pachyrhizi. Briefly: Fungicidal activity against soybean rust after seed treatment. The class given is in vivo. Particulars: triticonazole 50 g, fipronil 50 g, gibberellic acid 1 g a.s. per 100 kg seeds.

On to `CC1(C)CCC(=Cc2ccc(Cl)cc2)C1(O)Cn1cncn1` (centres unmarked) [Triticonazole, triticonazole], for which, in series [1], the “Longitudinal growth of treated wheat” value is “greatly reduced longitudinal growth”. Besides, in series [2], the Vitality was 2. Further, the “Infection (percentage of diseased leaf area)” value worked out at 9% in series [3] (leaves in the middle part of the plant, 35 days after sowing, untreated 10.5); 0% in series [3] (lower part of the plant, 21 days after sowing, untreated 8.5); 47% in series [3] (lower part of the plant, 35 days after sowing, untreated 70).
